How the values were obtained:
HCT-116 = assay: Cytotoxicity against human HCT116 cells assessed as reduction in cell viability incubated for 3 days by tryphan blue dye based assay; type: functional; settings: HCT-116, 72 h
PANC-1 = assay: Cytotoxicity against human PANC1 cells assessed as reduction in cell viability incubated for 3 days by tryphan blue dye based assay; type: functional; settings: PANC-1, 72 h
[1] = Stability of compound in benzene-d6 by 1H-NMR analysis; type: physicochemical
[2] = Stability of compound assessed as shelf life measured after preserving compound in amber vial containing 95% CH3CN and 5% H2O followed by drying using N2 stream and later punged-with argon followed by exposure to 4 degC for 24 hrs; type: physicochemical
[3] = (§1) Drug degradation assessed as methyl N-[(E)-8-[4-[(2E)-hexa-2,5-dienyl]-1,3-thiazol-2-yl]-3,7-dihydroxy-3-(hydroxymethyl)-8-methylnon-4-enyl]carbamate metabolite formation by measuring relative abundance measured after preserving compound in amber vial containing methanol followed by drying using air stream for 24 hrs at room temperature by LC-MS-TIC analysis; type: physicochemical
[4] = as §1, with “maximum absorbance units” for “relative abundance”, “ultraviolet-photoiodide array detection method” for “LC-MS-TIC analysis”; type: physicochemical
[5] = Stability of compound assessed as shelf life measured after preserving compound in amber vial containing 95% CH3CN and 5% H2O followed by drying using N2 stream and later punged-with argon in dark desiccator under vacuum for 24 hrs; type: physicochemical
[6] = as §1, with “N2” for “air”; type: physicochemical
[7] = Drug degradation assessed as methyl N-[(E)-8-[4-[(2E)-hexa-2,5-dienyl]-1,3-thiazol-2-yl]-3,7-dihydroxy-3-(hydroxymethyl)-8-methylnon-4-enyl]carbamate metabolite formation by relative abundance measured after preserving compound in amber vial containing 95% CH3CN and 5% H2O followed by drying using N2 stream and later punged-with argon in dark desiccator under vacuum for 24 hrs by LC-MS-TIC analysis; type: physicochemical
[8] = (§2) Drug degradation assessed as methyl N-[(E)-8-[4-[(2E)-hexa-2,5-dienyl]-1,3-thiazol-2-yl]-3,7-dihydroxy-3-(hydroxymethyl)-8-methylnon-4-enyl]carbamate metabolite formation by measuring maximum absorbance units measured after preserving compound in amber vial containing 95% CH3CN and 5% H2O followed by drying using N2 stream and later punged-with argon followed by exposure to 4 degC for 24 hrs by ultraviolet-photoiodide array detection method; type: physicochemical
[9] = (§3) Drug degradation assessed as methyl N-[(E)-8-[4-[(2E)-hexa-2,5-dienyl]-1,3-thiazol-2-yl]-3,7-dihydroxy-3-(hydroxymethyl)-8-methylnon-4-enyl]carbamate metabolite formation by measuring relative abundance measured after preserving compound in amber vial containing 95% CH3CN and 5% H2O followed by drying using N2 stream followed by exposure to direct light for 24 hrs by LC-MS-TIC analysis; type: physicochemical
[10] = as §3, with “stream and later punged-with argon” for “stream”, “4 degC” for “direct light”; type: physicochemical
HepG2 = assay: Cytotoxicity against human HepG2 cells assessed as reduction in cell viability incubated for 3 days by tryphan blue dye based assay; type: functional; settings: HepG2, 72 h
[11] = as §2, with “stream” for “stream and later punged-with argon”, “direct light” for “4 degC”; type: physicochemical
[12] = as §2, with “in dark desiccator under vacuum” for “followed by exposure to 4 degC”; type: physicochemical
[13] = as §1, with “maximum absorbance units” for “relative abundance”, “N2” for “air”, “ultraviolet-photoiodide array detection method” for “LC-MS-TIC analysis”; type: physicochemical

With C=CC/C=C\Cc1csc(C(C)(C)[C@H](O)C/C=C/C(O)(CO)CCNC(=O)OC)n1 (stereo partly specified) the IC50 (HCT-116) was > 1000 nM.
In the case of C=CC/C=C\Cc1csc(C(C)(C)[C@H](O)CC2C=C(CCNC(=O)OC)CON2c2ccccc2)n1 (stereo partly specified), the IC50 (PANC-1) is reported as > 1000 nM.
In the case of C=CC/C=C\Cc1csc(C(C)(C)C(=O)C/C=C\C(=C)CCNC(=O)OC)n1, the IC50 (PANC-1) is reported as 2000 nM.
With C=CC/C=C\Cc1csc(C(C)(C)C(O)CC2C=C(CCNC(=O)OC)CN(c3ccccc3)O2)n1 (single isomer, unassigned) the IC50 (PANC-1) was > 1000 nM.
For C=CC/C=C/Cc1csc(C(C)(C)[C@@H](C/C=C\C(=C)CCNC(=O)OC)OC(C)=O)n1, the Stability [1] was “>= 6 months” and the IC50 (PANC-1) was 1.3 nM.
With C=CC/C=C/Cc1csc(C(C)(C)[C@H](O)C/C=C\C(=C)CCNC(=O)OC)n1 the Stability [2] was 3 to 6 weeks, the Drug degradation [3] was 45% and the Drug degradation [4] was 500000 a.u. The Stability [5] was 3 to 6 weeks, the Drug degradation [6] was 45% and the Drug degradation [7] was 20%. For the same compound, the Drug degradation [8] was 500000 a.u, the Drug degradation [9] was 60% and the IC50 (PANC-1) was 0.16 nM. It also gave a Drug degradation [10] of 20%, an IC50 (HepG2) of 0.27 nM and a Drug degradation [11] of 280000 a.u. It also gave an IC50 (HCT-116) of 0.35 nM, a Drug degradation [12] of 500000 a.u and a Drug degradation [13] of 500000 a.u.

Source: ChEMBL document CHEMBL4373748, “Reinvestigation of Mycothiazole Reveals the Penta-2,4-dien-1-ol Residue Imparts Picomolar Potency and 8S Configuration” (ACS Med Chem Lett, 2020)
